Test results taken from article PMC8956739, “A synthetic lipopeptide targeting top-priority multidrug-resistant Gram-negative pathogens” (Nature Communications, 2022).
≈ marks a conversion by molar mass, not a printed value. Where “and” joins values, the source holds several entries; their conditions need not be identical. Identical values can stand only once. Residues, ends and D or L forms follow the SMILES beside them.

Legend:
[1] = test system: K. pneumoniae FADDI-KP032; type: cell-based, Klebsiella pneumoniae; conditions: FADDI-KP032
Experimental: (§1) MICs were determined in cation-adjusted Mueller–Hinton broth (CaMHB) by the broth micro-dilution method against ATCC strains and clinical isolates. MICs in the presence of Survanta® were determined as described above against P. aeruginosa ATCC 27853. In the 100 μL of fresh CaMHB containing polymyxins, 10% Survanta® (v/v, 2.5 mg/mL phospholipids) was added. MICs in the presence and absence of Survanta® were compared to determine the effect of binding to lung surfactant on the antibacterial activity of polymyxins.

[2] = test system: K. pneumoniae FADDI-KP065; type: cell-based, Klebsiella pneumoniae; conditions: FADDI-KP065
Experimental: as §1

P. aeruginosa ATCC 27853 [3] = experiment: Neutropenic mouse bloodstream infection model; type: in vivo; conditions: single IV dose 4 mg/kg; for Log10 CFU/mL blood at 4 h, Mean / Δlog10 CFU/mL blood (mean) / Log10 CFU/mL blood at 4 h, single mouse: 4 h; for Δlog10 CFU/mL blood (mean): treated minus control, mean of replicates; for Δlog10 CFU/mL blood (mean) / Log10 CFU/mL blood at 4 h, single mouse / Delta Log10 CFU/mL blood at 4 h, single mouse: 4 mg/kg; for Delta Log10 CFU/mL blood at 4 h, single mouse: treated mouse minus mean of vehicle mice
Experimental: The experimental methodology for the neutropenic mouse bloodstream infection model was described previously. Briefly, 7-week-old female Swiss mice (22–28 g) were rendered neutropenic by intraperitoneal administration of cyclophosphamide, 4 days (150 mg/kg) and 1 day (100 mg/kg) prior to inoculation. Bloodstream infection was established by intravenous administration of a 50 µL bolus of early log-phase bacterial suspension (4 × 10^8 CFU/mL). Lipopeptide solutions were prepared at 1 mg/mL (free base) in sterile saline. At 2 h after inoculation, mice (n = 3) were injected intravenously with lipopeptide solution at 4 mg/kg (free base) or saline control. At 0 and 4 h after administration, blood was collected, diluted serially in sterile saline, and plated on nutrient agar plates. Agar plates were incubated at 37 °C overnight for bacterial colony counting and the bacterial load in the blood (log10 CFU/mL) in each mouse was calculated. In vivo efficacy was calculated as the difference of the log10 CFU/mL blood values between the treated mice and the saline-treated mice at 4 h post dosing (Δlog10 CFU/mL blood = log10 [treated] CFU/mL blood − log10[control] CFU/mL blood).

A. baumannii ATCC 19606 = type: cell-based, Acinetobacter baumannii; conditions: ATCC 19606
Experimental: as §1

A. baumannii FADDI-AB030 = type: cell-based, Acinetobacter baumannii; conditions: FADDI-AB030
Experimental: as §1

A. baumannii FADDI-AB034 = type: cell-based, Acinetobacter baumannii; conditions: FADDI-AB034
Experimental: as §1

[4] = test system: P. aeruginosa FADDI-PA025; type: cell-based, Pseudomonas aeruginosa; conditions: FADDI-PA025
Experimental: as §1

P. aeruginosa ATCC 27853 [5] = type: cell-based, Pseudomonas aeruginosa; conditions: for MIC P. aeruginosa ATCC 27853 / MIC, No Survanta: ATCC 27853
Experimental: as §1

[6] = test system: P. aeruginosa FADDI-PA038; type: cell-based, Pseudomonas aeruginosa; conditions: FADDI-PA038
Experimental: as §1

Swiss mice, kidney = experiment: Nephrotoxicity in mice (kidney histopathology); type: in vivo, mouse; conditions: for Kidney histopathology (SQS Score): 72 mg/kg/d subcutaneously in six divided doses every 2 h, n = 3; for Kidney histopathology, mice with the SQS score: mouse, in vivo
Experimental: The experimental methodology has been previously reported by our group. Briefly, individual lipopeptide solutions were prepared in sterile saline (6 mg/mL). Swiss mice (female, 7-week-old, 22–28 g) were subcutaneously administered at 12 mg/kg in, 6 doses every 2 h to reach a total dose of 72 mg/kg (n = 3). For high-dose nephrotoxicity experiments, mice were intraperitoneally administered at 20 or 25 mg/kg, in 6 doses every 2 h to reach a total dose of 120 mg/kg (n = 6) or 150 mg/kg (n = 3). At 20 h after the last dose, the right kidney from each mouse was collected and placed in 10% buffered (pH 7.4) formalin (Sigma-Aldrich, Castle Hill, NSW, Australia). The kidneys were subjected to histological examination at the Australian Phenomics Network-Histopathology and Organ Pathology (University of Melbourne, Parkville, VIC, Australia), who was blind to the treatment groups.

Structure (SMILES) | MIC K. pneumoniae FADDI-KP032 [1] | MIC K. pneumoniae FADDI-KP065 [2] | Log10 CFU/mL blood at 4 h, Mean (P. aeruginosa ATCC 27853 [3]) | Δlog10 CFU/mL blood (mean) (P. aeruginosa ATCC 27853 [3]) | Log10 CFU/mL blood at 4 h, single mouse (P. aeruginosa ATCC 27853 [3]) | Delta Log10 CFU/mL blood at 4 h, single mouse (P. aeruginosa ATCC 27853 [3]) | MIC A. baumannii ATCC 19606 (A. baumannii ATCC 19606) | MIC A. baumannii FADDI-AB030 (A. baumannii FADDI-AB030) | MIC A. baumannii FADDI-AB034 (A. baumannii FADDI-AB034) | MIC P. aeruginosa FADDI-PA025 [4] | MIC P. aeruginosa ATCC 27853 (P. aeruginosa ATCC 27853 [5]) | MIC P. aeruginosa FADDI-PA038 [6] | Kidney histopathology (SQS Score) (Swiss mice, kidney) | Kidney histopathology, mice with the SQS score (Swiss mice, kidney) | impact of lung surfactant on MIC (P. aeruginosa ATCC 27853 [5]; 10% Survanta vs none) | MIC, No Survanta (P. aeruginosa ATCC 27853 [5])
CC[C@@H]1NC(=O)[C@@H](CC(C)C)NC(=O)[C@H](CCN)NC(=O)[C@@H](NC(=O)[C@H](CN)NC(=O)[C@@H](NC(=O)[C@H](CCN)NC(=O)c2ccc(Cl)cc2F)[C@@H](C)O)CCNC(=O)[C@H]([C@@H](C)O)NC(=O)[C@H](CCN)NC(=O)[C@H](CCN)NC1=O [Lipopeptide F448] (HELM PEPTIDE1{[O=C(c1ccc(Cl)cc1F)[*:2]].[Dab].T.[NC[C@H](N[*:1])C(=O)[*:2]].[Dab].[Dab].[dL].[Abu].[Dab].[Dab].T}$PEPTIDE1,PEPTIDE1,5:R3-11:R2$$$V2.0) | <0.125 µg/mL | 0.25 µg/mL (≈ 0.219 µM) | 4.51 Log10 CFU/mL blood | −3.06 log10 CFU/mL blood | 4.51 Log10 CFU/mL blood and 4.31 Log10 CFU/mL blood and 4.72 Log10 CFU/mL blood | -3.07 Log10 CFU/mL blood and -3.27 Log10 CFU/mL blood and -2.85 Log10 CFU/mL blood | 2 µg/mL (≈ 1.75 µM) | 1 µg/mL (≈ 0.874 µM) | 0.5 µg/mL (≈ 0.437 µM) | 1 µg/mL (≈ 0.874 µM) | 0.5 µg/mL (≈ 0.437 µM) | 0.5 µg/mL (≈ 0.437 µM) | 0 (SQS 0 = no significant change (overall score, <1)) | 3/3 |  | 
CCCCCCCC(=O)N[C@@H](CCN)C(=O)N[C@H](C(=O)N[C@@H](CN)C(=O)N[C@H]1CCNC(=O)[C@H]([C@@H](C)O)NC(=O)[C@H](CCN)NC(=O)[C@H](CCN)NC(=O)[C@H]([C@@H](C)O)NC(=O)[C@@H](CC(C)C)NC(=O)[C@H](CCN)NC1=O)[C@@H](C)O [Lipopeptide F251] (HELM PEPTIDE1{[CCCCCCCC(=O)[*:2]].[Dab].T.[NC[C@H](N[*:1])C(=O)[*:2]].[Dab].[Dab].[dL].T.[Dab].[Dab].T}$PEPTIDE1,PEPTIDE1,5:R3-11:R2$$$V2.0) | <0.125 µg/mL | <0.125 µg/mL | 5.87 Log10 CFU/mL blood | −1.57 log10 CFU/mL blood | 6.12 Log10 CFU/mL blood and 5.83 Log10 CFU/mL blood and 5.67 Log10 CFU/mL blood | -1.33 Log10 CFU/mL blood and -1.61 Log10 CFU/mL blood and -1.78 Log10 CFU/mL blood | 0.5 µg/mL (≈ 0.443 µM) | 0.25 µg/mL (≈ 0.221 µM) | 0.25 µg/mL (≈ 0.221 µM) | 8 µg/mL (≈ 7.08 µM) | 0.5 µg/mL (≈ 0.443 µM) | 0.5 µg/mL (≈ 0.443 µM) | 0 (SQS 0 = no significant change (overall score, <1)) | 3/3 | slightly impacted | 0.5 µg/mL (≈ 0.443 µM)
CCCCCCCC(=O)N[C@@H](CCN)C(=O)N[C@H](C(=O)N[C@@H](CN)C(=O)N[C@H]1CCNC(=O)[C@H]([C@@H](C)O)NC(=O)[C@H](CCN)NC(=O)[C@H](CCN)NC(=O)[C@H](C)NC(=O)[C@@H](CC(C)C)NC(=O)[C@H](CCN)NC1=O)[C@@H](C)O [Lipopeptide F271] (HELM PEPTIDE1{[CCCCCCCC(=O)[*:2]].[Dab].T.[NC[C@H](N[*:1])C(=O)[*:2]].[Dab].[Dab].[dL].A.[Dab].[Dab].T}$PEPTIDE1,PEPTIDE1,5:R3-11:R2$$$V2.0) | <0.125 µg/mL | <0.125 µg/mL | 5.18 Log10 CFU/mL blood | −2.27 log10 CFU/mL blood | 5.01 Log10 CFU/mL blood and 5.37 Log10 CFU/mL blood and 5.15 Log10 CFU/mL blood | -2.43 Log10 CFU/mL blood and -2.08 Log10 CFU/mL blood and -2.30 Log10 CFU/mL blood | 0.5 µg/mL (≈ 0.455 µM) | 0.25 µg/mL (≈ 0.227 µM) | 0.25 µg/mL (≈ 0.227 µM) | 16 µg/mL (≈ 14.6 µM) | 0.5 µg/mL (≈ 0.455 µM) | 1 µg/mL (≈ 0.91 µM) | 0 (SQS 0 = no significant change (overall score, <1)) | 3/3 |  | 
CCCCCCCC(=O)N[C@@H](CCN)C(=O)N[C@H](C(=O)N[C@H](CN)C(=O)N[C@H]1CCNC(=O)[C@H]([C@@H](C)O)NC(=O)[C@H](CCN)NC(=O)[C@H](CCN)NC(=O)[C@H]([C@@H](C)O)NC(=O)[C@@H](CC(C)C)NC(=O)[C@H](CCN)NC1=O)[C@@H](C)O [Lipopeptide F300] (HELM PEPTIDE1{[CCCCCCCC(=O)[*:2]].[Dab].T.[NC[C@@H](N[*:1])C(=O)[*:2]].[Dab].[Dab].[dL].T.[Dab].[Dab].T}$PEPTIDE1,PEPTIDE1,5:R3-11:R2$$$V2.0) | <0.125 µg/mL | <0.125 µg/mL | 5.31 Log10 CFU/mL blood | −1.53 log10 CFU/mL blood | 5.76 Log10 CFU/mL blood and 5.85 Log10 CFU/mL blood and 4.64 Log10 CFU/mL blood and 4.99 Log10 CFU/mL blood | -1.08 Log10 CFU/mL blood and -1.00 Log10 CFU/mL blood and -2.20 Log10 CFU/mL blood and -1.85 Log10 CFU/mL blood | 0.25 µg/mL (≈ 0.221 µM) | <0.125 µg/mL | <0.125 µg/mL | 4 µg/mL (≈ 3.54 µM) | 0.25 µg/mL (≈ 0.221 µM) | 1 µg/mL (≈ 0.885 µM) | +2 (SQS + 2 = mild to moderate damage (overall score, 15 to <30)) | 3/3 |  | 1 µg/mL (≈ 0.885 µM)
CC[C@@H]1NC(=O)[C@@H](CC(C)C)NC(=O)[C@H](CCN)NC(=O)[C@@H](NC(=O)[C@H](CN)NC(=O)[C@@H](NC(=O)[C@H](CCN)NC(=O)c2ccc(C)cc2)[C@@H](C)O)CCNC(=O)[C@H]([C@@H](C)O)NC(=O)[C@H](CCN)NC(=O)[C@H](CCN)NC1=O [Lipopeptide F383] (HELM PEPTIDE1{[Cc1ccc(C(=O)[*:2])cc1].[Dab].T.[NC[C@H](N[*:1])C(=O)[*:2]].[Dab].[Dab].[dL].[Abu].[Dab].[Dab].T}$PEPTIDE1,PEPTIDE1,5:R3-11:R2$$$V2.0) | 1 µg/mL (≈ 0.905 µM) | 1 µg/mL (≈ 0.905 µM) | 4.91 Log10 CFU/mL blood | −3.02 log10 CFU/mL blood | 5.76 Log10 CFU/mL blood and 4.40 Log10 CFU/mL blood and 4.59 Log10 CFU/mL blood | -2.18 Log10 CFU/mL blood and -3.54 Log10 CFU/mL blood and -3.35 Log10 CFU/mL blood | 2 µg/mL (≈ 1.81 µM) | 2 µg/mL (≈ 1.81 µM) | 2 µg/mL (≈ 1.81 µM) | 2 µg/mL (≈ 1.81 µM) | 0.5 µg/mL (≈ 0.452 µM) | 1 µg/mL (≈ 0.905 µM) | 0 (SQS 0 = no significant change (overall score, <1)) | 3/3 |  | 
